Where a name gives a salt, the structure may show the parent alone.

In this experiment the target is T1, recombinant human DPP-1 (Cathepsin C) (Homo sapiens, UniProt P53634).
T1 construct: made in house
T1 sequence (P53634 25-463): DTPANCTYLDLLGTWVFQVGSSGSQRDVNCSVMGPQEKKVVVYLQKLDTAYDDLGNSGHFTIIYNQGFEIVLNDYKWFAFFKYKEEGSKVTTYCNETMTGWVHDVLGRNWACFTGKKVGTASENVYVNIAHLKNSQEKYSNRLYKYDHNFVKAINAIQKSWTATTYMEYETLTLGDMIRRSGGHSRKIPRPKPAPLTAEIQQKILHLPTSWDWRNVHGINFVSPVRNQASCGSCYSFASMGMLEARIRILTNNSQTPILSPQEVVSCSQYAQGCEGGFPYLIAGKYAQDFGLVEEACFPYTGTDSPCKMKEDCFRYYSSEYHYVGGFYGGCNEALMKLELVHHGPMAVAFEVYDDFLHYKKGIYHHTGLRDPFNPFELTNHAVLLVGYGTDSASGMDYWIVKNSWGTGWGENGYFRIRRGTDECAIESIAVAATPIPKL
Description: DPP-1 Inhibition Assay (In Vitro). The experiment is classed as biochemical. The following applies: fluorogenic substrate GR-AMC 10 uM, 0.15 nM DPP-1, pH 7.0, room temperature; average value where tested multiple times. The protocol:
Test compounds were assessed for DPP-1 (Cathepsin C) inhibitory activity using a fluorogenic substrate, GR-AMC (Glycine-Arginine-amino-4-methylcoumarin, Bachem, 1-1215). The amount of amino-methylcoumarin released is proportional to the DPP-1 activity, and the reaction is monitored kinetically with a Molecular Devices plate reader using black 96-well plates.
All compounds were tested under room temperature conditions. The assay buffer consisted of 50 mM HEPES, pH 7.0, 100 mM NaCl, 2 mM glutathione (GSH), and 0.002% TWEEN 20. GSH and TWEEN 20 were added to the buffer fresh daily. Just prior to use, an in-house preparation of recombinant human DPP-1 (240 μM stock, MW 49.6 kD) was diluted 600-fold in assay buffer containing fresh 2 mM dithiothreitol (DTT) to activate the enzyme, then diluted into assay buffer (without DTT) 133-fold for a DPP-1 working solution of 3 nM. Test compounds were diluted in DMSO for 20× their final assay concentrations.
Additions to a 96-well black Costar 3915 plates were as follows: 90 μL of 11 μM GR-AMC, 5 μL test compound (followed by mixing), and 5 μL 3 nM DPP1 to start the reaction. Fluorescent reactions were monitored kinetically at 360 nm excitation, 440 nm emission on a Molecular Devices Spectramax XPS reader. The Softmax Pro software of the reader determined the initial velocity of the selected data (the first 3-5 minutes of the reaction), and the best linear regression fit of the initial kinetic data. Final assay conditions were 0.15 nM DPP-1, 10 uM GR-AMC, 50 mM HEPES, pH 7.0, 100 mM NaCl, 2 mM GSH, 0.002% TWEEN 20, 1 μM DTT, 5.0% DMSO. Initial velocity rates were plotted vs. test compound concentration by use of a four-parameter logistics equation (nonlinear regression, sigmoidal dose-response (variable slope), with fixed Hill (1.0) using GraphPad Prism® software for determination of DPP-1 IC50. Within-run assay coefficient of variation (CV) was generally <10%; between-run CV<20%.
Representative compounds of the present invention were tested according to the procedure as described above, with results as listed in Table 3, below.
As usually defined, the IC50 is the concentration needed to halve the response being measured. As to `N[C@@H](Cc1cccs1)C(=O)N1CCN(c2nc3ccc(-c4ccc(O)cc4)cc3s2)CC1` [Compound 15], the IC50 was 220 nM.

`CC[C@H](N)C(=O)NCCNc1nc2ccc(OC)cc2s1` [Compound 43, (S)-2-amino-N-(2-(6-methoxybenzo[d]thiazol-2-ylamino)ethyl)butanamide hydrochloride]: the IC50 was 12000 nM.

For the compound `COc1ccc(NC(=O)c2ccc3nc(N4CCN(C(=O)[C@@H](N)Cc5cccs5)CC4)sc3c2)cc1OC` [Compound 3, (S)-2-(4-(2-amino-3-(thiophen-2-yl)propanoyl)piperazin-1-yl)-N-(3,4-dimethoxyphenyl)benzo[d]thiazole-6-carboxamide hydrochloride], the IC50 was 170 nM.

Regarding `N[C@@H](Cc1cccs1)C(=O)N1CCN(c2nc3ccccc3s2)CC1` [Compound 1], the IC50 came to 3500 nM.

With `N[C@@H](Cc1cccs1)C(=O)N1CCN(c2nc3ccc(C(=O)NC4CCCC4)cc3s2)CC1` [Compound 19, (S)-2-(4-(2-amino-3-(thiophen-2-yl)propanoyl)piperazin-1-yl)-N-cyclopentylbenzo[d]thiazole-6-carboxamide], the IC50 stood at 870 nM.

`N[C@@H](Cc1cccs1)C(=O)N1CCN(c2nc3ccc(Br)cc3s2)CC1` [Compound 5]: the IC50 turned out to be 1300 nM.

In the case of `N[C@@H](Cc1cccs1)C(=O)N1CCN(c2nc3ccc(CO)cc3s2)CC1` [Compound 18, (S)-2-amino-1-(4-(6-(hydroxymethyl)benzo[d]thiazol-2-yl)piperazin-1-yl)-3-(thiophen-2-yl)propan-1-one], the IC50 was determined as 760 nM.

Take `COc1ccc(NC(=O)c2ccc3nc(N4CCN(C(=O)[C@@H](N)Cc5ccsc5)CC4)sc3c2)cc1OC` [Compound 12]: the IC50 was 5600 nM.

`N[C@@H](Cc1cccs1)C(=O)N1CCN(c2nc3ccc(C(=O)NC4CCCCC4)cc3s2)CC1` [Compound 30]: the IC50 was 2300 nM.

Regarding `CC[C@H](N)C(=O)NCCNc1nc2ccccc2s1` [Compound 41, (S)-2-amino-N-(2-(benzo[d]thiazol-2-ylamino)ethyl)butanamide hydrochloride], the half-inhibitory concentration (IC50) stood at 18000 nM.

In the case of `C#CC[C@H](N)C(=O)NCCNc1nc2ccccc2s1` [Compound 42], the IC50 is 4700 nM.

On to `C#CC[C@H](N)C(=O)NCCNc1nc2ccccc2o1` [Compound 44, (S)-2-amino-N-(2-(benzo[d]oxazol-2-ylamino)ethyl)pent-4-ynamide hydrochloride], for which the concentration for half-maximal inhibition (IC50) stood at 3100 nM.

In the case of `N[C@@H](Cc1cccs1)C(=O)N1CCN(c2nc3ccc(-c4ccc(C(F)(F)F)cc4)cc3s2)CC1` [Compound 14, (S)-2-amino-3-(thiophen-2-yl)-1-(4-(6-(4-(trifluoromethyl)phenyl)benzo[d]thiazol-2-yl)piperazin-1-yl)propan-1-one], the IC50 is 1300 nM.

Consider `N[C@@H](Cc1cccs1)C(=O)N1CCN(c2nc3ccc(CNC4CCCC4)cc3s2)CC1` [Compound 21, (S)-2-amino-1-(4-(6-((cyclopentylamino)methyl)benzo[d]thiazol-2-yl)piperazin-1-yl)-3-(thiophen-2-yl)propan-1-one], for which the IC50 stood at 520 nM.

Turning to `N[C@@H](Cc1cccs1)C(=O)N1CCN(c2nc3ccc(-c4cccnc4)cc3s2)CC1` [Compound 13], the IC50 amounted to 370 nM.

For the compound `N[C@@H](Cc1cccs1)C(=O)N1CCN(c2nc3ccc(-c4ccc(F)c(F)c4)cc3s2)CC1` [Compound 11], the IC50 worked out at 970 nM.

With `CCCCNC(=O)c1ccc2nc(N3CCN(C(=O)[C@@H](N)Cc4cccs4)CC3)sc2c1` [Compound 24], the IC50 was 820 nM.

In the case of `N[C@@H](Cc1cccs1)C(=O)NCCNc1nc2ccccc2s1` [Compound 46, (S)-2-amino-N-(2-(benzo[d]thiazol-2-ylamino)ethyl)-3-(thiophen-2-yl)propanamide hydrochloride], the IC50 was found to be 740 nM.

Consider `N[C@@H](Cc1cccs1)C(=O)N1CCN(c2nc3ccccc3o2)CC1` [Compound 2, (S)-2-amino-1-(4-(benzo[d]oxazol-2-yl)piperazin-1-yl)-3-(thiophen-2-yl)propan-1-one hydrochloride], for which the IC50 turned out to be 1400 nM.

`COc1cccc(CNC(=O)c2ccc3nc(N4CCN(C(=O)[C@@H](N)Cc5cccs5)CC4)sc3c2)c1` [Compound 31]: the IC50 was 1200 nM.

As for `CCCNC(=O)c1ccc2nc(N3CCN(C(=O)[C@@H](N)Cc4cccs4)CC3)sc2c1` [Compound 29], the IC50 is 2100 nM.

Take `N[C@@H](Cc1cccs1)C(=O)NCCNc1nc2ccccc2o1` [Compound 47]: the IC50 was found to be 700 nM.

Consider `N[C@@H](Cc1cccs1)C(=O)N1CCN(c2nc3ccc(C(=O)O)cc3s2)CC1` [Compound 26], for which the IC50 was found to be 9600 nM.

Consider `COc1ccc(NC(=O)c2ccc3nc(N4CCN(C(=O)[C@@H](N)Cc5ccco5)CC4)sc3c2)cc1OC` [Compound 6], for which the IC50 worked out at 2100 nM.

With `CC[C@H](N)C(=O)N1CCN(c2nc3ccc(C(=O)Nc4ccc(OC)c(OC)c4)cc3s2)CC1` [Compound 4, (S)-2-(4-(2-aminobutanoyl)piperazin-1-yl)-N-(3,4-dimethoxyphenyl)benzo[d]thiazole-6-carboxamide hydrochloride], the IC50 came out at 3000 nM.

`Cc1ccc(-c2ccc3nc(N4CCN(C(=O)[C@@H](N)Cc5cccs5)CC4)sc3c2)cc1` [Compound 8]: the IC50 turned out to be 1100 nM.

On to `CCOc1ccc(NC(=O)c2ccc3nc(N4CCN(C(=O)[C@@H](N)Cc5cccs5)CC4)sc3c2)cc1` [Compound 28], for which the IC50 turned out to be 1200 nM.

Regarding `N[C@@H](Cc1cccs1)C(=O)N1CCN(c2nc3ccc(-c4ccccc4F)cc3s2)CC1` [Compound 16], the IC50 turned out to be 580 nM.

`N[C@@H](Cc1cccs1)C(=O)N1CCN(c2nc3ccc(C(=O)Nc4ccc(F)cc4)cc3s2)CC1` [Compound 20]: the IC50 is 560 nM.

Take `COc1ccc(NC(=O)c2ccc3nc(NCCN(C)C(=O)[C@@H](N)Cc4cccs4)sc3c2)cc1OC` [Compound 48, (S)-2-(2-(2-amino-N-methyl-3-(thiophen-2-yl)propanamido)ethylamino)-N-(3,4-dimethoxyphenyl)benzo[d]thiazole-6-carboxamide]: the IC50 stood at 200 nM.

For the compound `CC[C@H](N)C(=O)NCCNc1nc2ccccc2o1` [Compound 45], the IC50 is around 8000 nM.

Consider `CN(C)C(=O)c1ccc2nc(N3CCN(C(=O)[C@@H](N)Cc4cccs4)CC3)sc2c1` [Compound 27], for which the IC50 was 2200 nM.

Source of the values: patent publication US8481547B2, “Substituted benzothiazole and benzoxazole derivatives useful as inhibitors of DPP-1” (Janssen Pharmaceutica NV, priority 2009, dated 2013).
